pIC50: −log10 of the molar value. Activity calls are given as the source filed them. No cut-off for these calls is given here.
Legend:
[1] = test system: LN-229; experiment: Induction of apoptosis in human LN-229 cells assessed as necrotic cells at 10 uM incubated for 24 hrs by Annexin V-APC/7-AAD staining based flow cytometric analysis (reference value: 0.56 %); format: functional
[2] = test system: U-87 MG; experiment: Induction of apoptosis in human U-87 MG cells at 20 uM incubated for 24 hrs by Annexin V-APC/7-AAD staining based flow cytometric analysis (reference value: 5.67 +/- 1.49 %); format: functional, U-87MG ATCC
[3] = test system: U-87 MG; experiment: Induction of apoptosis in human U-87 MG cells assessed as necrotic cells at 20 uM incubated for 24 hrs in presence of R7050 by Annexin V-APC/7-AAD staining based flow cytometric analysis (reference value: 3.85 %); format: functional, U-87MG ATCC
[4] = test system: U-87 MG; experiment: Induction of apoptosis in human U-87 MG cells assessed as viable cells at 20 uM incubated for 24 hrs by Annexin V-APC/7-AAD staining based flow cytometric analysis (reference value: 85 %); format: functional, U-87MG ATCC; details: read-out: Activity
[5] = Drug concentration in C57BL/6J mouse brain at 9 mg/kg,iv administration measured after 15 mins by LC-MS analysis; format: ADME, organism-based; details: read-out: Ct
[6] = test system: LN-229; experiment: Induction of apoptosis in human LN-229 cells assessed as early apoptotic cells at 20 uM incubated for 24 hrs by Annexin V-APC/7-AAD staining based flow cytometric analysis (reference value: 0.45 %); format: functional
[7] = test system: U-87 MG; experiment: Induction of apoptosis in human U-87 MG cells assessed as upregulation of TNF-alpha gene expression incubated for 24 hrs by transcriptome sequencing analysis; format: functional, cell-based; details: U-87MG ATCC
[8] = test system: LN-229; experiment: Induction of apoptosis in human LN-229 cells assessed as upregulation of cleaved caspase-3 expression incubated for 24 hrs by Western blot analysis; format: functional, cell-based
[9] = test system: LN-229; experiment: Induction of apoptosis in human LN-229 cells assessed as necrotic cells at 20 uM incubated for 24 hrs by Annexin V-APC/7-AAD staining based flow cytometric analysis (reference value: 1.95 %); format: functional
[10] = test system: LN-229; experiment: Induction of apoptosis in human LN-229 cells assessed as early apoptotic cells at 10 uM incubated for 24 hrs by Annexin V-APC/7-AAD staining based flow cytometric analysis (reference value: 0.45 %); format: functional
[11] = test system: U-87 MG; experiment: Induction of apoptosis in human U-87 MG cells assessed as late apoptotic cells at 20 uM incubated for 24 hrs by Annexin V-APC/7-AAD staining based flow cytometric analysis (reference value: 4.22 %); format: functional, U-87MG ATCC
[12] = test system: LN-229; experiment: Induction of apoptosis in human LN-229 cells assessed as early apoptotic cells at 20 uM incubated for 24 hrs by Annexin V-APC/7-AAD staining based flow cytometric analysis (reference value: 2.46 %); format: functional
[13] = test system: U-87 MG; experiment: Induction of apoptosis in human U-87 MG cells assessed as early apoptotic cells at 20 uM incubated for 12 hrs by Annexin V-APC/7-AAD staining based flow cytometric analysis (reference value: 0.94 %); format: functional, U-87MG ATCC
[14] = test system: U-87 MG; experiment: Induction of apoptosis in human U-87 MG cells assessed as early apoptotic cells at 20 uM incubated for 48 hrs by Annexin V-APC/7-AAD staining based flow cytometric analysis (reference value: 0.94 %); format: functional, U-87MG ATCC
[15] = test system: U-87 MG; experiment: Induction of apoptosis in human U-87 MG cells assessed as late apoptotic cells at 20 uM incubated for 12 hrs by Annexin V-APC/7-AAD staining based flow cytometric analysis (reference value: 3.44 %); format: functional, U-87MG ATCC
[16] = test system: LN-229; experiment: Induction of apoptosis in human LN-229 cells assessed as viable cells at 10 uM incubated for 24 hrs by Annexin V-APC/7-AAD staining based flow cytometric analysis (reference value: 95.4 %); format: functional; details: read-out: Activity
[17] = test system: U-87 MG; experiment: Induction of apoptosis in human U-87 MG cells assessed as viable cells at 20 uM incubated for 24 hrs in presence of R7050 by Annexin V-APC/7-AAD staining based flow cytometric analysis (reference value: 85 %); format: functional, U-87MG ATCC; details: read-out: Activity
[18] = test system: LN-229; experiment: Induction of apoptosis in human LN-229 cells assessed as early apoptotic cells at 5 uM incubated for 24 hrs by Annexin V-APC/7-AAD staining based flow cytometric analysis (reference value: 0.45 %); format: functional
[19] = test system: LN-229; experiment: Induction of apoptosis in human LN-229 cells assessed as necrotic cells at 20 uM incubated for 24 hrs in presence of R7050 by Annexin V-APC/7-AAD staining based flow cytometric analysis (reference value: 1.95 %); format: functional
[20] = test system: LN-229; experiment: Induction of apoptosis in human LN-229 cells at 20 uM incubated for 24 hrs by Annexin V-APC/7-AAD staining based flow cytometric analysis (reference value: 4.47 +/- 1.09 %); format: functional
[21] = test system: LN-229; experiment: Induction of apoptosis in human LN-229 cells assessed as early apoptotic cells at 20 uM incubated for 24 hrs in presence of R7050 by Annexin V-APC/7-AAD staining based flow cytometric analysis (reference value: 0.91 %); format: functional
[22] = test system: LN-229; experiment: Induction of apoptosis in human LN-229 cells assessed as early apoptotic cells at 20 uM incubated for 48 hrs by Annexin V-APC/7-AAD staining based flow cytometric analysis (reference value: 2.46 %); format: functional
[23] = test system: U-87 MG; experiment: Antiproliferative activity against human U-87 MG cells assessed as inhibition of cell growth incubated for 68 hrs by CCK-8 assay; format: functional, cell-based, U-87MG ATCC
[24] = test system: LN-229; experiment: Induction of apoptosis in human LN-229 cells assessed as necrotic cells at 20 uM incubated for 24 hrs by Annexin V-APC/7-AAD staining based flow cytometric analysis (reference value: 0.7 %); format: functional
[25] = test system: LN-229; experiment: Induction of apoptosis in human LN-229 cells assessed as necrotic cells at 5 uM incubated for 24 hrs by Annexin V-APC/7-AAD staining based flow cytometric analysis (reference value: 0.56 %); format: functional
[26] = test system: U-87 MG; experiment: Induction of apoptosis in human U-87 MG cells assessed as viable cells at 20 uM incubated for 24 hrs by Annexin V-APC/7-AAD staining based flow cytometric analysis (reference value: 94 %); format: functional, U-87MG ATCC; details: read-out: Activity
[27] = test system: LN-229; experiment: Induction of apoptosis in human LN-229 cells assessed as late apoptotic cells at 10 uM incubated for 24 hrs by Annexin V-APC/7-AAD staining based flow cytometric analysis (reference value: 3.56 %); format: functional
[28] = test system: U-87 MG; experiment: Induction of apoptosis in human U-87 MG cells assessed as late apoptotic cells at 20 uM incubated for 48 hrs by Annexin V-APC/7-AAD staining based flow cytometric analysis (reference value: 3.44 %); format: functional, U-87MG ATCC
[29] = Drug concentration in C57BL/6J mouse brain at 9 mg/kg,iv administration measured after 30 mins by LC-MS analysis; format: ADME, organism-based; details: read-out: Ct
[30] = test system: U-87 MG; experiment: Induction of apoptosis in human U-87 MG cells assessed as necrotic cells at 20 uM incubated for 48 hrs by Annexin V-APC/7-AAD staining based flow cytometric analysis (reference value: 1 %); format: functional, U-87MG ATCC
[31] = test system: U-87 MG; experiment: Induction of apoptosis in human U-87 MG cells assessed as necrotic cells at 20 uM incubated for 24 hrs by Annexin V-APC/7-AAD staining based flow cytometric analysis (reference value: 3.85 %); format: functional, U-87MG ATCC
[32] = test system: U-87 MG; experiment: Induction of apoptosis in human U-87 MG cells assessed as early apoptotic cells at 20 uM incubated for 24 hrs by Annexin V-APC/7-AAD staining based flow cytometric analysis (reference value: 1.59 %); format: functional, U-87MG ATCC

What does the source list for `CCCCCCCNC(=O)[C@H](Cc1c[nH]c2ccccc12)NC(=O)C(C)(c1c[nH]c2ccccc12)c1c[nH]c2ccccc12`?
Activity [1]: 1.95%; Activity [2]: 13.95%; Activity [3]: 0.86%; viability at 20 µM [4]: 65.1%; concentration at 0.25 h [5]: 91 ng/g; Activity [6]: 13.8%; Activity [7]: Active; Activity [8]: Dose-Dependent Effect; Activity [9]: 1.94%; Activity [10]: 3.58%; Activity [11]: 11.6%; Activity [12]: 13%; Activity [13]: 1.53%; Activity [14]: 5.06%; Activity [15]: 3.62%; viability at 10 µM [16]: 88.1%; viability at 20 µM [17]: 87.6%; Activity [18]: 0.82%; Activity [19]: 1.25%; Activity [20]: 21.2%; Activity [21]: 1.48%; Activity [22]: 18.5%; pIC50 [23]: 5.09; Activity [24]: 0.87%; Activity [25]: 0.46%; viability at 20 µM [26]: 74.3%; Activity [27]: 6.38%; Activity [28]: 11.6%; concentration at 0.5 h [29]: 241 ng/g; Activity [30]: 4.65%; Activity [31]: 8.66%; Activity [32]: 13.7%

Reference: ChEMBL document CHEMBL5614421, “Structure-activity relationship study of Pseudellone C as anti-glioma agents by targeting TNF/TNFR signaling pathway” (Eur J Med Chem, 2024)
